The values below come from paper PMC7284125, “Identification of annotated bioactive molecules that impair motility of the blood fluke Schistosoma mansoni” (International Journal for Parasitology: Drugs and Drug …, 2020).

The subject of assay [1] is S. mansoni schistosomulae. Kind of assay: Phenotypic primary screen assay on schistosomulae (phenotype; viability by methylene blue dye exclusion). The format is cell-based. The following applies: Schistosoma mansoni; three-day-old schistosomulae, 10 μM, 24 h; calculated 5 days post compound exposure; read-out: Viability (%).
The test system of assay [2] is S. mansoni schistosomulae. The assay is described as above. In kind it is cell-based, Schistosoma mansoni. The note with it: three-day-old schistosomulae, 10 μM, 24 h; estimated 5 days post compound exposure. As for the experimental part:
Puerto Rican strain Biomphalaria glabrata snails infected with S. mansoni were kindly provided by Dr. Fred Lewis (Biomedical Research Institute and BEI Resources, MD, USA). Schistosomulae were obtained by exposing six to eight weeks-old snails to continuous light for 2 h at 32 °C. […] At this point, animals with internal dark granulations and with no observable body contraction/relaxation cycles were considered dead.
Schistosomulae were monitored under a stereo microscope (SMZ1270, Nikon). Phenotypic observations were made by analyzing schistosomulae, 24 h after drug addition to assess any immediate effect and five days post-compound exposure to observe long-term impacts on both the movement and overall body shape in comparison to control animals exposed to DMSO only.

Assay [3] relates to S. mansoni schistosomulae. Nature of the assay: Motility assay on schistosomulae (pixel displacement, relative to DMSO control). The note with it: for activity at 1 µM: Schistosoma mansoni, read-out: Fractional motility; for motility phenotype in words: after 24 h exposure. The format is cell-based, Schistosoma mansoni. As for the experimental part: Puerto Rican strain Biomphalaria glabrata snails infected with S. mansoni were kindly provided by Dr. Fred Lewis (Biomedical Research Institute and BEI Resources, MD, USA). Schistosomulae were obtained by exposing six to eight weeks-old snails to continuous light for 2 h at 32 °C. The resulting suspension of cercaria was then mechanically transformed as described ([Lewis, 2001]) and cultured in Opti-MEM/antibiotics (Thermo Fisher Scientific, Waltham, MA) containing 100 μg/mL streptomycin and 100 units/ml penicillin supplemented with 5% fetal bovine serum (FBS; Thermo Fisher). Parasite cultures were incubated at 37 °C with 5% CO2 for at least 10 days with no apparent loss of viability. At this point, animals with internal dark granulations and with no observable body contraction/relaxation cycles were considered dead.
(§1) Schistosomulae (200/well) and adult parasites (unpaired worms) were maintained in 300 μL OPTI-MEM with 5% dialyzed FBS (without antibiotics) and exposed to compounds at 1 and 10 μM for 24 h. A kinetic assay consisting of 1, 3, 6 and 12 h incubation times was performed on selected hits by motility monitoring using a stereo microscope (SMZ1270, Nikon) for adults and an inverted microscope for schistosomulae (eclipse TE2000-U, Nikon) connected to a monochrome camera (DS-Qi2, Nikon) for image acquisition. Images were recorded at a rate of 10 frames/s for a period of 1 min and videos were analyzed using ImageJ software (version 1.41, NIH, USA). Parasite movement quantification and data analysis protocols were applied using the pixel displacement method ([Patocka et al., 2014]; [Rashid et al., 2015]) and compared to control parasites treated with DMSO. Parasites were then washed several times in Opti-MEM, 5% FBS and incubated up to an additional three days (schistosomulae) or five days (adult worms) at 37 °C, 5% CO2 and motility was recorded as described above.

The next assay concerns S. mansoni adult worms. Kind of assay: Motility assay on adult parasites (pixel displacement, relative to DMSO control). The following applies: for Fractional motility: 10 μM. The format is cell-based, Schistosoma mansoni. As for the experimental part:
Adult parasites were collected from 40 day-old female CD1 mice (Charles River) previously inoculated by the tail infection method ([Lewis, 2001]). Six weeks post-infection, mice were sacrificed, and adult worms extracted after perfusion of in the hepatic portal vein and mesenteric venules ([Lewis, 2001]). Animal procedures were reviewed and approved by the Facility Animal Care Committee of McGill University (Protocol No. 3346) and were conducted in accordance with the guidelines of the Canadian Council on Animal Care.
as §1

The mark [4] stands for this setting: 120 h, schistosomulae, secondary screen, 24h exposure, read at D5, 1 µM.
Where [5] appears, read: schistosomulae, secondary screen, 24h exposure, read at D1, 1 µM.
Setting [6] is: schistosomulae, 1h exposure, read at D1, 10 µM.
Where [7] appears, read: schistosomulae, 1h exposure, read at D5, 10 µM.
Where [8] appears, read: schistosomulae, 3h exposure, read at D1, 10 µM.
[9] abbreviates: schistosomulae, 3h exposure, read at D5, 10 µM.
The mark [10] stands for this setting: schistosomulae, 6h exposure, read at D1, 10 µM.
The mark [11] stands for this setting: schistosomulae, secondary screen, 24h exposure, read at D1, 10 µM.
Setting [12] is: schistosomulae, secondary screen, 24h exposure, read at D5, 10 µM.
The mark [13] stands for this setting: secondary screen, D1, Female adult worms.
Setting [14] is: secondary screen, D1, Male adult worms.
[15] abbreviates: secondary screen, D5, Female adult worms.
The mark [16] stands for this setting: secondary screen, D5, Male adult worms.
Where [17] appears, read: schistosomulae, 6h exposure, read at D5, 10 µM.

In general, viability refers to the share of living cells, or the viability signal relative to a control.

The structures appear in SMILES notation. Where two headings read alike, the source gives them in different places.

In the case of `C[C@@H](NCCCc1cccc(C(F)(F)F)c1)c1cccc2ccccc12` [AMG-073], the viability at 10 µM in assay [1] was 55%. Besides, the Phenotype entry in assay [2] was “big, granulated, blebbing”. Besides, the activity at 1 µM is -32% in assay [3] (setting [4]) and -28% in assay [3] (setting [5]). Besides, the Fractional motility was 7.02 in assay [3] (setting [6]); 0.35 in assay [3] (setting [7]); 12.64 in assay [3] (setting [8]); 0.72 in assay [3] (setting [9]); 6.39 in assay [3] (setting [10]); -0.83 in assay [3] (setting [11]). Moreover, the Fractional motility was -1.00 in assay [3] (setting [12]); 0.11 in the assay on S. mansoni adult worms (setting [13]); -0.24 in the assay on S. mansoni adult worms (setting [14]); -0.43 in the assay on S. mansoni adult worms (setting [15]); -0.27 in the assay on S. mansoni adult worms (setting [16]). The “motility in extended assay with reduced incubation times, in words” value in assay [3] (three-day old schistosomulae, incubation 1 h, 3 h, 6 h) is listed as “did not exhibit a significant change before the 24 hr incubation cut-off”.

Take `COc1cc(N2CCN(C)CC2)ccc1Nc1nccc(-c2cn(C)c3cnccc23)n1` [AZ191]: the viability at 10 µM in assay [1] is 89.5%. Moreover, the Phenotype result in assay [2] is listed as “granulated, blebbing”. Moreover, the activity at 1 µM in assay [3] (setting [4]) is 49%; in assay [3] (setting [5]), -38%. The Fractional motility is -0.69 in assay [3] (setting [11]); -0.09 in assay [3] (setting [12]); -0.48 with S. mansoni adult worms (setting [13]); 0.25 in the assay on S. mansoni adult worms (setting [14]); -0.27 in the assay with S. mansoni adult worms (setting [15]); 2.64 with S. mansoni adult worms (setting [16]).

As for `C=CC(=O)Nc1cc(Nc2nccc(-c3cn(C)c4ccccc34)n2)c(OC)cc1N(C)CCN(C)C` [AZD9291], in assay [1], the viability at 10 µM is 39.5%. The Phenotype result in assay [2] was “dark, granulated, some blebbing”. For the same compound, the values for the activity at 1 µM in assay [3] (setting [4]) and in assay [3] (setting [5]) were 134% and 89%, respectively. The Fractional motility in assay [3] (setting [6]) was 0.30; in assay [3] (setting [7]), -0.42; in assay [3] (setting [8]) it was 1.06; in assay [3] (setting [9]) it was -0.33; in assay [3] (setting [10]) it was -0.37; in assay [3] (setting [17]) it was 0.0374. Besides, the Fractional motility in assay [3] (setting [11]) is recorded as 7.13; in assay [3] (setting [12]), -0.73; in the assay on S. mansoni adult worms (setting [13]), -0.59; in the assay with S. mansoni adult worms (setting [14]), 0.48; in the assay with S. mansoni adult worms (setting [15]), -0.14; with S. mansoni adult worms (setting [16]) it was -0.20.

Regarding `C=CC[C@]1(O)CC[C@H]2[C@@H]3CCC4=CC(=O)CCC4=C3C=C[C@@]21C` [Altrenogest], the viability at 10 µM in assay [1] was 90%. Moreover, the Phenotype result in assay [2] is listed as “elongated”. The activity at 1 µM was -12% in assay [3] (setting [4]) and 147% in assay [3] (setting [5]). The Fractional motility is recorded as 10.00 in assay [3] (setting [11]); -0.06 in assay [3] (setting [12]); -0.04 with S. mansoni adult worms (setting [13]); -0.0348 in the assay on S. mansoni adult worms (setting [14]); -0.50 with S. mansoni adult worms (setting [15]); 0.0449 in the assay on S. mansoni adult worms (setting [16]).

`CN(C)CCC=C1c2ccccc2CCc2ccccc21` [Amitriptyline]: in assay [1], the viability at 10 µM was 90%. For the same compound, the Phenotype entry in assay [2] is “elongated, granulated, blebbing”. Besides, the activity at 1 µM in assay [3] (setting [4]) was -4%; in assay [3] (setting [5]), 286%. Moreover, the Fractional motility came to 5.01 in assay [3] (setting [11]); 0.60 in assay [3] (setting [12]); 0.24 in the assay on S. mansoni adult worms (setting [13]); 1.53 in the assay with S. mansoni adult worms (setting [14]); 0.30 with S. mansoni adult worms (setting [15]); 0.03 in the assay on S. mansoni adult worms (setting [16]).

For `COC(=O)C1=CCCN(C)C1` [Arecoline], the viability at 10 µM in assay [1] was 96.5%. Also, the Phenotype entry in assay [2] is recorded as “round body, blebbing”. The Fractional motility was -0.93 in assay [3] (Arecoline and analogs, 24h, D1, 10 µM); 1.49 in assay [3] (Arecoline and analogs, 24h, D5, 10 µM); -0.93 in assay [3] (setting [6]); -0.87 in assay [3] (setting [7]); -0.70 in assay [3] (setting [8]); -0.72 in assay [3] (setting [9]). The Fractional motility in assay [3] (setting [10]) was -0.86; in assay [3] (setting [17]), -0.49; in assay [3] (setting [5]), -0.93; in assay [3] (setting [11]), -0.93; in assay [3] (schistosomulae, secondary screen, 24h exposure, read at D5, 1 µM), 1.22; in assay [3] (setting [12]), 1.49. The Fractional motility is recorded as -0.92 with S. mansoni adult worms (Arecoline and analogs, D1, Female adult worms); -0.79 in the assay on S. mansoni adult worms (Arecoline and analogs, D1, Male adult worms); -0.72 with S. mansoni adult worms (Arecoline and analogs, D5, Female adult worms); -0.0374 with S. mansoni adult worms (Arecoline and analogs, D5, Male adult worms); -0.92 with S. mansoni adult worms (setting [13]); -0.79 in the assay on S. mansoni adult worms (setting [14]). The Fractional motility in the assay with S. mansoni adult worms (setting [15]) was -0.72; in the assay on S. mansoni adult worms (setting [16]) it was -0.0374. The activity at 1 µM in assay [3] (120 h, Arecoline and analogs, 24h, D5, 1 µM) is 122%; in assay [3] (Arecoline and analogs, 24h, D1, 1 µM), -93%. Besides, the “motility phenotype in words” value in assay [3] (schistosomulae) is “short term, pronounced paralysis”; with S. mansoni adult worms (adults, after 24 h exposure), “nearly complete paralysis”.

Regarding `CNCc1ccc(C)c(NC(=O)c2ccc(Nc3nc(-c4ccccc4)c4ccccc4n3)cc2)c1` [BMS-833923], the viability at 10 µM in assay [1] is 32.5%. Moreover, the Phenotype result in assay [2] is listed as “big, granulated”. Besides, the activity at 1 µM in assay [3] (setting [4]) is -48%; in assay [3] (setting [5]), 10%. Further, the Fractional motility in assay [3] (setting [11]) is given as 10.40; in assay [3] (setting [12]), -0.90; with S. mansoni adult worms (setting [13]), -0.84; with S. mansoni adult worms (setting [14]), -0.59; with S. mansoni adult worms (setting [15]) it was -0.64; in the assay on S. mansoni adult worms (setting [16]), 0.14.

Regarding `CN(C)CC/C=C1/c2ccccc2Sc2ccc(Cl)cc21` [Chlorprothixene], in assay [1], the viability at 10 µM is 99%. For the same compound, in assay [2], the Phenotype result is given as “elongated”. The activity at 1 µM in assay [3] (120 h, Selleckchem customized library secondary screen, 24h, D5, 1 µM) amounted to 207%. Besides, the Fractional motility in assay [3] (Selleckchem customized library secondary screen, 24h, D1, 10 µM) is given as 73.31; in assay [3] (Selleckchem customized library secondary screen, 24h, D5, 10 µM), 9.20; in the assay with S. mansoni adult worms (setting [13]), 2.18; in the assay on S. mansoni adult worms (setting [14]), 2.53; in the assay on S. mansoni adult worms (setting [15]), 0.23; in the assay on S. mansoni adult worms (setting [16]) it was 0.16. In addition, the “motility phenotype in words” value in assay [3] (schistosomulae) is given as “high levels of hypermotility”.

On to `CCN(CC)CCOc1ccc(C(=C(Cl)c2ccccc2)c2ccccc2)cc1` [Clomifene], for which the viability at 10 µM in assay [1] was 100%. Moreover, in assay [2], the Phenotype result is on record as “big, granulated”. The values for the activity at 1 µM in assay [3] (setting [4]) and in assay [3] (setting [5]) were 49% and 12%, respectively. The Fractional motility in assay [3] (setting [11]) is on record as 1.47; in assay [3] (setting [12]), 0.15; in the assay with S. mansoni adult worms (setting [13]), -0.44; with S. mansoni adult worms (setting [15]), -0.03; in the assay on S. mansoni adult worms (setting [16]), -0.17.
